Tests used:
[1] = target: T1, androgen receptor (Homo sapiens, UniProt P10275); details: cited from earlier work
T1 sequence (P10275 1-920): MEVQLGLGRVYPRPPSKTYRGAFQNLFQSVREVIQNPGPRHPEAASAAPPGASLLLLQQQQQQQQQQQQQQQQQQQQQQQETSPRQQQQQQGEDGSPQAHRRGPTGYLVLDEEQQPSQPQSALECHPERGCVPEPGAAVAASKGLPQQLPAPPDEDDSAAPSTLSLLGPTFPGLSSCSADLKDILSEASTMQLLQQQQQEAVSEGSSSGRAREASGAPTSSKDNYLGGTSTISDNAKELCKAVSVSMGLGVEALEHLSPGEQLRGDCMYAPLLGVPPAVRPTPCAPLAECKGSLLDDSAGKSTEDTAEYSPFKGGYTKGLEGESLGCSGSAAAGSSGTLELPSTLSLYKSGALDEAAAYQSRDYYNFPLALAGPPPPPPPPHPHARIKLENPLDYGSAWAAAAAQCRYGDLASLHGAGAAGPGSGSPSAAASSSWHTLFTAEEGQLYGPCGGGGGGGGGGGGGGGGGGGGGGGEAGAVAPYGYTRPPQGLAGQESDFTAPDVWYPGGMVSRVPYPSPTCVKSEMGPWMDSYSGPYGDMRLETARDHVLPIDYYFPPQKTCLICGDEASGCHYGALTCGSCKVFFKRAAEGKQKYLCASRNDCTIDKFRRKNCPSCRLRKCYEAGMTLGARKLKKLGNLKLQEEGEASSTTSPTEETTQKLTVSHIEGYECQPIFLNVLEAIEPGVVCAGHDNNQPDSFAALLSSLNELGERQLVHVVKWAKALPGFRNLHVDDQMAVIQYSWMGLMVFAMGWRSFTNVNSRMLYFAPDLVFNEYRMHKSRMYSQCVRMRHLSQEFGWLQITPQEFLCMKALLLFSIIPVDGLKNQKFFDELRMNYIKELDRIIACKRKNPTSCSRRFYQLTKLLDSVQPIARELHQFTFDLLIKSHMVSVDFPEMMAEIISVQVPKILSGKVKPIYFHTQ

[2] = Serum segesterone acetate by HPLC-MS/MS after subcutaneous injection; details: rat, 50 mg/kg SEG
Protocol: In Vivo Performance. In vivo studies were performed in female adult Sprague-Dawley rats, weighing approximately 300 g each. […] Animals received a subcutaneous injection in the scruff of the neck containing 50 mg/kg SEG.
For longer term studies, five experimental groups (n=5 animals each) were studied: empty porous silica particles, pure non-micronized SEG, medium porosity 70 wt % segesterone acetate loaded particles and two groups of two different batches of high porosity 70 wt % segesterone acetate loaded particles. The five groups were monitored for 6 months with body weight measurements and tail-vein blood draws taken weekly.
Serum samples were processed and submitted to a third-party lab for segesterone acetate detection via HPLC-MS/MS.

[3] = target: T2, estrogen receptor (Homo sapiens, UniProt P03372); details: cited from earlier work
T2 sequence (P03372 1-595): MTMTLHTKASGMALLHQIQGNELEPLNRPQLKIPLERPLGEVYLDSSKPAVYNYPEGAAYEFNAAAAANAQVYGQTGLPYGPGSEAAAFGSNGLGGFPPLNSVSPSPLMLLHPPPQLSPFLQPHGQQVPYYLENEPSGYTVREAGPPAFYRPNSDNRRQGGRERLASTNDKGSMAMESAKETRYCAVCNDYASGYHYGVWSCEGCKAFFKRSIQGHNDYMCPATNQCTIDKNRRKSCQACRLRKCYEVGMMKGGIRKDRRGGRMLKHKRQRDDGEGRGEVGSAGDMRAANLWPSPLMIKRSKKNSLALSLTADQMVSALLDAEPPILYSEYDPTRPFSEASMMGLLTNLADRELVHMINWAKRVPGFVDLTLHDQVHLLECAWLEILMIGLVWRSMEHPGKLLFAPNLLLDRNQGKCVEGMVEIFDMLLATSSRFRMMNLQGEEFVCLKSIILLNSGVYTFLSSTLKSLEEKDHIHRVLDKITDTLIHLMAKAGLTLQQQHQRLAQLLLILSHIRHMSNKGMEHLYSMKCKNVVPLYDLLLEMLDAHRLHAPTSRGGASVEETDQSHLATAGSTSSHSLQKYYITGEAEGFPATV

[4] = In vitro dissolution / segesterone acetate release in 1x PBS; format: physicochemical; details: 1x PBS pH 7.4, 37° C., mild agitation, starting SEG 0.4 mg/mL
Protocol: Modulation of Segesterone Acetate Release Profile. Three main particle parameters were investigated as to their effect on the release of loaded SEG: particle oxidation temperature, drug loading, and particle porosity. Unless otherwise mentioned, the baseline particle formulation used was 55% porosity, oxidized at 800° C. and had segesterone acetate loading of 70% weight/weight. Drug release was modeled by in vitro dissolution in 1× phosphate buffered saline (pH 7.4) under mild agitation at 37° C. For all studies, starting segesterone acetate concentration was kept constant at 0.4 mg/mL based on the percent loading of the given formulation. […] Segesterone acetate concentrations were evaluated by HPLC with absorbance measurements at 254 nm.

[5] = format: physicochemical
Protocol: Oxidized porous silicon microparticles were prepared using a similar method to those used for segesterone acetate melt casting described elsewhere (75% porosity, 800° C. oxidation). […] Once molten, the LNG-CHOL mixture was left to infiltrate the porous silica materials for 5 minutes before cooling to room temperature. The oxidized porous silicon material containing LNG-CHOL was then recovered and ground into microparticles using a mortar and pestle. The loaded oxidized porous silicon particles were then evaluated for their release kinetics in 1×PBS (pH 7.4) at 37° C. Approximately 2 mg of LNG-PSi were placed in a glass vial containing 3.5 mL of 1×PBS and placed in a 37° C. incubator on a moving platform to induce mild agitation of the solution. 3 mL of the PBS was removed every 24 hours and replaced with fresh solution. The extracted supernatant was then analyzed for LNG content by high performance liquid chromatography (HPLC).

In the case of `C=C1C[C@H]2[C@@H]3CCC4=CC(=O)CC[C@@H]4[C@H]3CC[C@]2(C)[C@@]1(OC(C)=O)C(C)=O` [segesterone acetate], the “binding to the androgen receptor” value [1] is given as “does not significantly bind”, the “segesterone acetate detection in serum at terminal 6-month timepoint” value [2] is given as “still detected” and the “binding to the estrogen receptor” value [3] is given as “does not significantly bind”. The “duration of segesterone acetate release / time to full clearance from the test chamber” value ([4]; listed as crystalline segesterone acetate controls) was 40 days and the “duration of segesterone acetate release / time to full clearance from the test chamber” value ([4]; listed as pure segesterone acetate) was 35 to 40 days.
With `C#C[C@]1(OC(=O)CCC)CC[C@H]2[C@@H]3CCC4=CC(=O)CC[C@@H]4[C@H]3CC[C@@]21CC` [Levonorgestrel Butanoate] the Tdegradeable (STA under nitrogen flow) was 230 °C and the “Window [Tdegradeable − Tmelt]” value (difference between melting and degradation temperatures, STA under nitrogen flow) was 26 °C.
With `C#C[C@]1(O)CC[C@H]2[C@@H]3CCC4=CC(=O)CC[C@@H]4[C@H]3CC[C@@]21CC` [Levonorgestrel] the “temperature at which the drug began to lose mass” value (oxygen atmosphere, heating rate 10° C.) was “approximately 233 °C” and the “chemical alteration or degradation by the melt casting process” value [5] was “not chemically altered or degraded”.
